The data set is described as follows: Human HepG2 cell viability assay in 384 well format. Type of data set: toxicity, cell-based. On the set-up: dose 125 nL, time 70.5 hour; cytotoxicity at 70.5 h: concentration not given beside the values. The settings on record: HepG2 cells, read-out: Inhibition.

With `O=C(NCCCN1CCOCC1)c1ccc(Cl)cc1Cl`, the cytotoxicity at 70.5 h came out at 2.42%.

On to `CCCN1CCC(NC(=O)Nc2ccc(OC)c(OC)c2)CC1`, for which the cytotoxicity at 70.5 h is -1.26%.

Regarding `Cc1cccc(C)c1OC1CN(C(=O)C2CC(=O)N(C(C)(C)C)C2)C1` (stereo not drawn), the cytotoxicity at 70.5 h came out at 18.1%.

Take `Cc1ccc([C@@H]2CN(C(=O)c3ccccc3C)C[C@H]2N(C)C)cc1`: the cytotoxicity at 70.5 h was determined as 2.46%.

As to `Cc1noc(C)c1CN1C(=O)[C@H]2CC[C@@H]1CN(Cc1ncc[nH]1)C2`, the cytotoxicity at 70.5 h is -0.471%.

On to `CCN(CC)S(=O)(=O)NC1CCCc2nc(-c3ccccc3)ncc21` (stereo not drawn), for which the cytotoxicity at 70.5 h is -7.72%.

For the molecule `CCN(C)C[C@@H]1CN(C(=O)NC2CCCCC2)C[C@@H]1CO`, the cytotoxicity at 70.5 h was -10.1%.

As for `CC1(C(=O)NCc2cccnc2Oc2ccc(F)c(F)c2)CCCNC1` (stereo not drawn), the cytotoxicity at 70.5 h was 8.1%.

As to `CCCc1cc(CN(C)C2CC(C)(C)NC(C)(C)C2)n[nH]1`, the cytotoxicity at 70.5 h was -4.42%.

`Cc1[nH]c2ccc(C#N)cc2c1CCNc1ncnc2c1CCNCC2`: the cytotoxicity at 70.5 h is -1.54%.

Take `CCCn1nc(C)c(CNC(=O)C2COc3ccc(OC)cc3C2)c1C` (stereo not drawn): the cytotoxicity at 70.5 h is -2.92%.

Consider `CN(C)c1cnn(Cc2nc3ccccc3n2C)c(=O)c1`, for which the cytotoxicity at 70.5 h is -12.8%.

Consider `CC(=O)c1cc(CC(=O)NCc2ccsc2)cs1`, for which the cytotoxicity at 70.5 h is -1.03%.

For the molecule `O=C(CCc1cc2n(n1)CCN(Cc1ccncc1)C2)N1CCCC1`, the cytotoxicity at 70.5 h was 18.6%.

Consider `CN(C)c1ccc(-c2cc(C(=O)O)cc(S(=O)(=O)NC3CC3)c2)cc1`, for which the cytotoxicity at 70.5 h was -12.9%.

With `COCC(=O)N1CCCN(c2ncnc3c2CCNCC3)CC1`, the cytotoxicity at 70.5 h was -5.03%.

Take `Cc1n[nH]c(C)c1CNc1ccc(-c2nc(C3CC3)no2)cn1`: the cytotoxicity at 70.5 h is -0.0598%.

As for `CN(C)CCCn1ccnc1C1CCN(C(=O)Cc2cccnc2)CC1`, the cytotoxicity at 70.5 h amounted to 9.19%.

For `COCc1noc(CCNc2nc(CC3CC3)nc3c2CCNCC3)n1`, the cytotoxicity at 70.5 h came to 8.9%.

As for `Cc1cc2cccc(NC(=O)N3CC[C@@H]4CC[C@H](C3)N4C)c2o1`, the cytotoxicity at 70.5 h was -5.41%.

As for `CCS(=O)(=O)N1CCC(c2nccn2Cc2ccncc2)CC1`, the cytotoxicity at 70.5 h is -1.9%.

Take `c1cc2c(cc1-c1noc3c1CN(C1CCSCC1)CC3)OCO2`: the cytotoxicity at 70.5 h stood at 12.6%.

As for `Oc1cccc(-c2cc(C3CCN(Cc4cncnc4)C3)ccn2)c1` (stereo not drawn), the cytotoxicity at 70.5 h was -3.45%.

Take `Cc1nn(C)cc1CN1CCCn2nc(CNC(=O)C3CCC3)cc2C1`: the cytotoxicity at 70.5 h was -3.2%.

For the molecule `CCCN1CCCC2(CCN(S(=O)(=O)c3cccnc3)C2)C1=O` (stereo not drawn), the cytotoxicity at 70.5 h amounted to 2.74%.

Consider `COc1cccc(-c2n[nH]c3c2CN(C(=O)C2=C(C)OCCO2)CC3)c1`, for which the cytotoxicity at 70.5 h is -4.06%.

In the case of `O=C(c1cnc[nH]1)N1CCC(Oc2cccnc2)CC1`, the cytotoxicity at 70.5 h is -8.28%.

On to `CN(C)C(=O)c1coc(COc2ccccc2)n1`, for which the cytotoxicity at 70.5 h came out at 15.6%.

For the molecule `O=C1CCC2(CCCN(c3ncnc4[nH]cnc34)C2)CN1CCCO` (stereo not drawn), the cytotoxicity at 70.5 h is -14.3%.

Turning to `CC(=O)c1cnc(NCCN2CCCC2)nc1C`, the cytotoxicity at 70.5 h was -0.135%.

`CC(=O)c1cc(CN2CCCCC2c2nc3cc(F)ccc3[nH]2)cs1` (stereo not drawn): the cytotoxicity at 70.5 h was -5.07%.

In the case of `CC(=O)c1cc(CC(=O)N2CCN(S(=O)(=O)c3ccccc3)CC2)cs1`, the cytotoxicity at 70.5 h was -1.54%.

In the case of `Cc1ccc(Cl)cc1-n1nnnc1C1(N2CCCC2)CCCCC1`, the cytotoxicity at 70.5 h is -12.7%.

Regarding `Cc1ccc(OCCN(C)C(=O)CCCC(N)=O)c(C)c1`, the cytotoxicity at 70.5 h is -5.93%.

For the molecule `CC(C)N1CCC(CC(=O)N(C)CC(=O)c2ccc(O)cc2)CC1`, the cytotoxicity at 70.5 h was -1.48%.

As to `Cc1cc(CN2CCC(C3CCN(CCc4ccccc4)CC3)C2)[nH]n1` (stereo not drawn), the cytotoxicity at 70.5 h was -0.097%.

Turning to `O=C1OCCN1CCNCC1(O)CCCN(CCC2CCCCC2)C1=O` (stereo not drawn), the cytotoxicity at 70.5 h was -5.99%.

In the case of `O=C1NCCN(Cc2cccnc2)C1CC(=O)N1CCc2n[nH]cc2C1` (stereo not drawn), the cytotoxicity at 70.5 h was -0.172%.

Consider `COc1ccc2c(c1)ncn2C[C@]1(O)CCCN2CCCC[C@@H]21`, for which the cytotoxicity at 70.5 h is -13.3%.

Take `Cn1ccnc1-c1cn(Cc2cn3c(n2)SCC3)nn1`: the cytotoxicity at 70.5 h is -5.95%.

In the case of `Cn1ccnc1CCC1CCCCN1Cc1cnc(N2CCCC2)nc1` (stereo not drawn), the cytotoxicity at 70.5 h worked out at 22.9%.

In the case of `O=C(CCn1cc(Cl)cn1)N1CCC2(CC1)OCCCC2O` (stereo not drawn), the cytotoxicity at 70.5 h was found to be 12%.

With `COCC(=O)N1C[C@@H](CN2CCCN(C)CC2)[C@@H](CO)C1`, the cytotoxicity at 70.5 h is -4.72%.

Consider `O=C(c1cncc(F)c1)N1CCC(c2ncc[nH]2)CC1`, for which the cytotoxicity at 70.5 h was -7.04%.

In the case of `COc1cccc(OC2CN(C(=O)c3sccc3C)C2)c1`, the cytotoxicity at 70.5 h is -4.06%.

As for `COc1ccc(CCC2CCCN(C(=O)c3cnc(N)nc3C)C2)cc1` (stereo not drawn), the cytotoxicity at 70.5 h was -18.9%.

For `CCN1CCC(CNC(=O)C(c2ccccc2F)N(C)C)(N(C)C)CC1` (stereo not drawn), the cytotoxicity at 70.5 h was -2.78%.

For `Cc1ccc(C(=O)N2CCCn3nc(CCC(=O)O)cc3C2)cc1Cl`, the cytotoxicity at 70.5 h was -2.03%.

For the molecule `Cc1ccc(CN2CCNC(C(=O)NC3CC3)C2)cc1C` (stereo not drawn), the cytotoxicity at 70.5 h was -10.4%.

As for `CC(C)=CCN1CC2(CCN(Cc3c(F)cccc3F)CC2)CC1=O`, the cytotoxicity at 70.5 h came to 23.4%.

Turning to `N#Cc1cccc(C(=O)N2C[C@H](CO)C[C@H](CN3CCCC3)C2)c1`, the cytotoxicity at 70.5 h was 2.99%.

Regarding `CC(=O)N[C@@H]1CN(C(=O)c2cnccn2)C[C@H]1c1ccc(C)cc1`, the cytotoxicity at 70.5 h was -11.4%.

In the case of `Cc1cccnc1NCCNC(=O)C1CCN(C(=O)N(C)C)CC1`, the cytotoxicity at 70.5 h was found to be 12.2%.

In the case of `COCCn1cnnc1Cn1ccnc1-c1ccccc1C`, the cytotoxicity at 70.5 h amounted to 1.73%.

As to `COc1ccccc1CCN[C@@H]1c2ccccc2C2(CCNCC2)[C@H]1O`, the cytotoxicity at 70.5 h is -4.74%.

For the molecule `Cc1ccc2[nH]c(CN(C)c3cc(CCN)nc(C)n3)nc2c1`, the cytotoxicity at 70.5 h was -8.93%.

Consider `CCOc1ccc2nc(CN3CCOC(CN)C3)ccc2c1` (stereo not drawn), for which the cytotoxicity at 70.5 h was -3.44%.

In the case of `OCC1(CC2CC2)CCCN(Cc2cnc(C3CCCCC3)nc2)C1` (stereo not drawn), the cytotoxicity at 70.5 h is -5.05%.

With `COCc1cc(NCCc2ccc(OC)cc2)n2nccc2n1`, the cytotoxicity at 70.5 h is -24.5%.

Consider `COCC1(C(=O)N2CCC(c3nccn3CC3CC3)CC2)CCC1`, for which the cytotoxicity at 70.5 h turned out to be 2.4%.

Take `CN(C(=O)CN1CCCC1=O)C1CCCN(C2Cc3ccccc3C2)C1` (stereo not drawn): the cytotoxicity at 70.5 h was -3.18%.

On to `CC(C)NS(=O)(=O)c1cc(C(=O)O)cc(-c2ccccc2F)c1`, for which the cytotoxicity at 70.5 h was -10.8%.

Take `CC(C)c1nccc(CN(C)Cc2cccc(-n3cccn3)c2)n1`: the cytotoxicity at 70.5 h is -1.47%.

`CC(C)Cn1cncc1Cn1cccc(C(F)(F)F)c1=O`: the cytotoxicity at 70.5 h was -2.53%.

`CCc1cc(-c2cc[nH]n2)nc(N2CCCC2)n1`: the cytotoxicity at 70.5 h is -7.99%.

In the case of `Cc1cc(CNC(=O)CC2CCN(C(C)C)CC2)n(C)n1`, the cytotoxicity at 70.5 h worked out at 16.3%.

As to `Cc1ccc(C)c(S(=O)(=O)N2CCN(C)C3(CCC(=O)N(C)CC3)C2)c1` (stereo not drawn), the cytotoxicity at 70.5 h was -13.3%.

Turning to `CN(C)CCN(Cc1ccsc1)C(=O)C1=NNC(=O)CC1`, the cytotoxicity at 70.5 h was -9.01%.

Consider `CCCC(C)NCc1cnc(-c2cccc(C)c2)nc1` (stereo not drawn), for which the cytotoxicity at 70.5 h was 1.72%.

For the molecule `CC(=O)c1ccc(NCc2cc3n(n2)CCCN(S(C)(=O)=O)C3)nc1`, the cytotoxicity at 70.5 h is -1.18%.

With `COc1cc(-c2nc3c([nH]2)CCCNC3=O)ccc1OC(C)C`, the cytotoxicity at 70.5 h was -3.41%.

Turning to `CCCOCCN1CCC2(CC1)CC(=O)N(Cc1cc(F)cc(F)c1)C2`, the cytotoxicity at 70.5 h is -3.73%.

In the case of `COc1ccccc1CN1C(=O)O[C@@H]2CN(C(C)C)C[C@@H]21`, the cytotoxicity at 70.5 h was -0.224%.

Turning to `O=C(c1ccccc1C1CCNC1)N1CCC(N2CCC(O)CC2)CC1` (stereo not drawn), the cytotoxicity at 70.5 h is -12.4%.

Turning to `CSc1nnc(CC2CCN(C(=O)COc3cccnc3)CC2)n1C`, the cytotoxicity at 70.5 h was -8.54%.

For `NC(=O)C1CCN(C(C(=O)O)c2ccc(Cl)c(C(F)(F)F)c2)CC1` (stereo not drawn), the cytotoxicity at 70.5 h turned out to be 13.4%.

As for `Cc1cc(CN(C)C(=O)CN2CC3(CCNCC3)OC2=O)n(C)n1`, the cytotoxicity at 70.5 h is -9.14%.

With `c1ccc(CN2CCC(NCCSc3ncn[nH]3)C2)cc1` (stereo not drawn), the cytotoxicity at 70.5 h came out at 30.4%.

In the case of `CCNc1ccnc(N2CCCC(CCOC)(C(=O)O)C2)n1` (stereo not drawn), the cytotoxicity at 70.5 h stood at 23.1%.

Turning to `CCCc1cc(N2CCC(Cc3cccc(C(N)=O)c3)C2)nc(C)n1` (stereo not drawn), the cytotoxicity at 70.5 h is -5.44%.

With `CC(C)(C(=O)N1CCCC(OCc2cccnc2)C1)n1cccc1` (stereo not drawn), the cytotoxicity at 70.5 h was -4.94%.

As to `COc1ccccc1CC(=O)N1CCCC(c2nccn2CC(N)=O)C1` (stereo not drawn), the cytotoxicity at 70.5 h was found to be 23.1%.

For the molecule `CCc1cccc(C)c1NC(=O)c1ccccc1N(C)S(C)(=O)=O`, the cytotoxicity at 70.5 h amounted to 26.1%.

As to `Cc1ccsc1CCNC(=O)CCC1CCCCN1C` (stereo not drawn), the cytotoxicity at 70.5 h was -15%.

Take `CC(C)(C)NS(=O)(=O)c1ccc(NC(=O)C2CC2)cc1`: the cytotoxicity at 70.5 h was 7.98%.

Consider `COc1coc(CN2CCCC(CCc3ccc(F)cc3)C2)cc1=O` (stereo not drawn), for which the cytotoxicity at 70.5 h is 2.53%.

As to `CC(c1ccco1)n1cc(-c2cc(CN3CCCC3)cs2)nn1` (stereo not drawn), the cytotoxicity at 70.5 h was -0.331%.

Turning to `COc1ccccc1Oc1ncccc1CNC(=O)[C@@H](N)[C@@H](C)O`, the cytotoxicity at 70.5 h was -1.67%.

Take `CC(=O)N1CCCN(C(C(=O)O)c2ccccc2OC(F)(F)F)CC1` (stereo not drawn): the cytotoxicity at 70.5 h was -7.53%.

Take `CCC(C(=O)N(Cc1ccccc1OC)C1CC1)n1cccn1` (stereo not drawn): the cytotoxicity at 70.5 h is -10.3%.

Take `Cc1nc(C2CCCNC2)cc(N(C)CCc2cn[nH]c2)n1` (stereo not drawn): the cytotoxicity at 70.5 h worked out at 20.1%.

In the case of `O[C@H]1[C@H](NCCSc2ccccn2)c2ccccc2C12CCNCC2`, the cytotoxicity at 70.5 h was 1.07%.

In the case of `CC(C)(O)CCc1ccc(C(=O)NCCC2CCOC2)cc1` (stereo not drawn), the cytotoxicity at 70.5 h was -2.2%.

Consider `CC(C)N1CCCC(C(=O)N(C)CCCc2cnn(C)c2)C1` (stereo not drawn), for which the cytotoxicity at 70.5 h was -2.41%.

`Cc1cn(CC(=O)Nc2cc(C(C)C)nn2C)cn1`: the cytotoxicity at 70.5 h was -10.1%.

Regarding `Cc1cc(NCc2ccc(O)cc2)n2nc(C)cc2n1`, the cytotoxicity at 70.5 h is -2.08%.

As for `CC(=O)Nc1ccc(S(=O)(=O)Nc2c(F)cccc2F)cc1`, the cytotoxicity at 70.5 h turned out to be 1.02%.

As for `Cc1cc(N2CCC(c3ncc[nH]3)CC2)nc(N)n1`, the cytotoxicity at 70.5 h was -2.19%.

The record behind these values is ChEMBL document CHEMBL3507680, “University of Dundee, Gates Library screen for HepG2 cell viability”.
